This is an account of results in paper PMC6572996, “Silver(I) Complexes of the Pharmaceutical Agents Metronidazole and 4-Hydroxymethylpyridine: Comparison of Cytotoxic Profile for Potential Clinical Application” (Molecules, 2019).

Data set [1] has as its system murine melanoma (B16) cell line. More on the design: method as in PMID 26828469. To be noted: same observation as in this study; cited from earlier work.
Data set [2] relates to HepG2 cells. The experiment in a line: NRU assay (lysosomal activity), HepG2. In kind it is cell-based, human. The note with it: for Lowest concentration with significant (p ≤ 0.05) inhibition of lysosomal activity (NRU): HepG2, 72 h, vs negative control 0.1% DMSO. How it is done: (§1) Data obtained from the measurement of the optical density in these assays were transformed to percentages in relation to the control group, considered to be 100% for the MTT, NRU, and TPC assays and 0% for the LDH assay (Figure 1).
(§2) The human hepatoma cell line (HepG2) was purchased from the American Type Culture Collection (ATCC HB-8065). These cells were cultured in Minimum Essential Medium Eagle (MEME) (ATCC). The murine fibroblast cell line (Balb/c 3T3 clone A31) (gift from Department of Swine Diseases of the National Veterinary Research Institute in Pulawy) was cultured in Dulbecco’s Modified Eagle’s Medium (DMEM) (ATCC). The media were supplemented with 10% BCS (Balb/c 3T3), 10% FBS (HepG2), 1% L-glutamine, and 1% antibiotic solution. The cells were maintained in 75 cm^2 cell culture flasks (Nunc, Roskilde, Denmark) in a humidified incubator, NuAire (Plymouth, MN, USA) at 37 °C, in an atmosphere of 5% CO2. The medium was refreshed every two or three days and the cells were trypsinized by 0.25% trypsin–0.02% EDTA after reaching 70–80% confluence. Single cell suspensions were prepared and adjusted to a density of 2 × 10^5 cells/mL (HepG2) and 5 × 10^4 cells/mL (Balb/c 3T3). The cell suspension was transferred to 96-well plates (100 µL/well) and incubated for 24 h before the exposure to the study compounds.
(§3) The concentration ranges of compounds were chosen according to their solubility and their plasma level. Each compound was dissolved in DMSO. The final concentration of DMSO was 0.1% in the medium. The same final concentrations of the solvent and the 1% Trition-X 100 solution were used as the negative and positive controls, respectively. […] All compound solutions in the medium were freshly prepared and protected from light. […] The concentration range was selected on the basis of results from previous studies. Each concentration was tested in six replicates with three independent experiments. Cytotoxicity was assessed after 72 h of exposure of the cells to the compounds. The medium was not changed during the incubation time.
(§4) The assay, based on the staining of living cells by neutral red, was performed according to the protocol described by Borenfreund and Puerner. After incubation, the medium containing the compound was removed and the cells were washed with PBS. Then, a 100 µL/well of NR solution (50 µg/mL) was added for 3 h. After that time, the cells were washed with PBS. The dye from viable cells was released by extraction with a mixture of acetic acid, ethanol, and water. After 10 min of shaking, the absorbance of the dissolved NR was measured at 540 nm in a microplate reader (LabSystems Multiskan RC, Thermo Fisher Scientific, Waltham, MA, USA) using a blank as a reference. Cytotoxicity was expressed as a percentage of the negative control (0.1% DMSO).
(§5) The results of the tests were expressed as a mean ± SD. The experiments were performed in three independent repetitions. Statistical analysis was performed using GraphPad Prism 5 (San Diego, CA, USA). One-way analysis of variance (ANOVA) followed by Dunnett’s post-hoc test was applied. The 50% inhibition (cytotoxicity) concentrations (IC50) were derived from the dose–response curve plotted with the concentration of the compound (X-axis) vs. cell viability percent (Y-axis). The IC50 values were calculated by GraphPad Prism 5 software (San Diego, CA, USA). Statistical comparisons among IC50 values were performed by the analysis of variance (ANOVA) followed by the Tukey test. Values of p ≤ 0.05 were considered statistically significant.

Data set [3] concerns Balb/c 3T3 cells. The experiment in a line: TPC assay (total protein content), Balb/c 3T3. In kind it is cell-based, mouse. To be noted: for Lowest concentration with significant (p ≤ 0.05) decrease of total protein content (TPC): Balb/c 3T3, 72 h, vs negative control 0.1% DMSO. The procedure:
as §1, §2, §3
(§6) The assay was based upon staining total cellular protein (proliferation). After incubation, the medium containing the compound was removed and 100 µL of Coomassie Brilliant Blue R-250 dye were added to each well. The plate was shaken for 10 min. Then, the stain was removed and the cells were rinsed twice with 100 µL of washing solution (glacial acetic acid/ethanol/water). After that, a 100 µL portion of the desorbing solution (1 M potassium acetate) was added and plates were shaken again for 10 min. The absorbance was measured at 595 nm in a microplate reader (LabSystems Multiskan RC, Thermo Fisher Scientific, Waltham, MA, USA) using a blank as a reference. Cytotoxicity was expressed as a percentage of the negative control (0.1% DMSO).
as §5

For data set [4], the system named is HepG2 cells. The experiment in a line: Leakage LDH assay (cellular membrane integrity), HepG2. In kind it is cell-based, human. The note with it: for Lowest concentration with significant (p ≤ 0.05) disintegration of the cellular membrane (LDH): HepG2, 72 h, vs negative control 0.1% DMSO. How it is done:
as §1, §2, §3
(§7) The integrity of the plasma membrane was assessed using the test of lactate dehydrogenase (LDH) release, which was monitored using the commercially available Cytotoxicity Detection Kit (LDH) (Roche Diagnostics, Warsaw, Poland). The medium (100 µL/well) without cells was transferred into the corresponding wells of an optically clear 96-well flat bottom microplate and a 100 µl reaction mixture was added to each well. Then, the plates were incubated for 30 min at room temperature in darkness. After that time, a 50 µL/well 1 M HCl was added to stop the reaction. The absorbance was measured at 492 nm in a microplate reader (LabSystems Multiskan RC, Thermo Fisher Scientific, Waltham, MA, USA) using a blank as a reference.
as §5

For the next data set, the system named is 10T1/2 cell line. More on the design: method as in PMID 26828469. The note with it: same observation as in this study; cited from earlier work.
Data set [5] deals with Balb/c 3T3 cells. Put plainly: MTT assay (mitochondrial activity), Balb/c 3T3. In kind it is cell-based, mouse. The note with it: for Lowest concentration with significant (p ≤ 0.05) inhibition of mitochondrial activity (MTT): Balb/c 3T3, 72 h, vs negative control 0.1% DMSO. The procedure:
as §1, §2, §3
(§8) The metabolic activity of living cells was assessed by measuring the activity of dehydrogenases. After incubation of the cells with the compounds, a 10 μL portion of the MTT solution (5 mg/ml in PBS) was added to each well of the 96-well plates and incubated. After 3 h, the MTT solution was removed and the intracellular formazan crystals were dissolved in 100 µl DMSO. The plate was shaken for 15 min at room temperature and transferred to a microplate reader (LabSystems Multiskan RC, Thermo Fisher Scientific, Waltham, MA, USA) to measure the absorbance at 570 nm, using blanks as a reference. Cytotoxicity was expressed as a percentage of the negative control (0.1% DMSO).
as §5

Data set [6] has as its system Balb/c 3T3 cells. Put plainly: NRU assay (lysosomal activity), Balb/c 3T3. In kind it is cell-based, mouse. To be noted: for Lowest concentration with significant (p ≤ 0.05) inhibition of lysosomal activity (NRU): Balb/c 3T3, 72 h, vs negative control 0.1% DMSO. How it is done: as §1, §2, §3, §4, §5
Data set [7] relates to HepG2 cells. The experiment in a line: TPC assay (total protein content), HepG2. To be noted: for Lowest concentration with significant (p ≤ 0.05) decrease of total protein content (TPC): HepG2, 72 h, vs negative control 0.1% DMSO. In kind it is cell-based, human. The procedure: as §1, §2, §3, §6, §5
In data set [8] the test system is HepG2 cells. Put plainly: MTT assay (mitochondrial activity), HepG2. In kind it is cell-based, human. To be noted: for Lowest concentration with significant (p ≤ 0.05) inhibition of mitochondrial activity (MTT): HepG2, 72 h, vs negative control 0.1% DMSO. How it is done:
as §1, §2, §3, §8, §5

Data set [9] in a line: Cytotoxicity over four assays in both cell lines. In kind it is cell-based. The note with it: mouse (Balb/c 3T3) and human (HepG2), Balb/c 3T3 clone A31 fibroblasts and HepG2 hepatoma cells, mostly greater than 50%, read-out: Viability of the cells at the highest concentrations used. How it is done:
as §1
as §2, with “Single cell suspensions were prepared and adjusted to a density of 2 × 10^5 cells/mL (HepG2) and 5 × 10^4 cells/mL (Balb/c 3T3). The cell suspension was transferred to 96-well plates (100 µL/well) and incubated for 24 h before the exposure to the study compounds.” left out
The concentration ranges of compounds were chosen according to their solubility and their plasma level. […] Cytotoxicity was assessed after 72 h of exposure of the cells to the compounds. […]
The results of the tests were expressed as a mean ± SD. […] The IC50 values were calculated by GraphPad Prism 5 software (San Diego, CA, USA). […]

Data set [10] deals with Balb/c 3T3 cells. Put plainly: Leakage LDH assay (cellular membrane integrity), Balb/c 3T3. In kind it is cell-based, mouse. The note with it: for Lowest concentration with significant (p ≤ 0.05) disintegration of the cellular membrane (LDH): Balb/c 3T3, 72 h, vs negative control 0.1% DMSO. How it is done: as §1, §2, §3, §7, §5

As for `OCc1ccncc1` [4-hydroxymethylpyridine], the “Cytotoxicity in B16 cell line” value in [1] is on record as “poorly cytotoxic”. In addition, the IC50 was above 227 µM with HepG2 cells [2] (Homo sapiens, HepG2, 72 h exposure, mean (n = 3) ± SEM, read-out: Inhibitory concentration IC50, NRU); above 227 µM with Balb/c 3T3 cells [3] (Mus musculus, BALB/c3T3, Balb/c 3T3, 72 h exposure, mean (n = 3) ± SEM, read-out: Inhibitory concentration IC50, TPC); above 227 µM in the data set with HepG2 cells [4] (Homo sapiens, HepG2, 72 h exposure, mean (n = 3) ± SEM, read-out: Inhibitory concentration IC50, LDH); above 227 µM with Balb/c 3T3 cells [5] (Mus musculus, BALB/c3T3, Balb/c 3T3, 72 h exposure, mean (n = 3) ± SEM, read-out: Inhibitory concentration IC50, MTT); above 227 µM with Balb/c 3T3 cells [6] (Mus musculus, BALB/c3T3, Balb/c 3T3, 72 h exposure, mean (n = 3) ± SEM, read-out: Inhibitory concentration IC50, NRU); above 227 µM in the data set on HepG2 cells [7] (Homo sapiens, HepG2, 72 h exposure, mean (n = 3) ± SEM, read-out: Inhibitory concentration IC50, TPC). Further, the IC50 with HepG2 cells [8] (Homo sapiens, HepG2, 72 h exposure, mean (n = 3) ± SEM, read-out: Inhibitory concentration IC50, MTT) was above 227 µM; in the data set with Balb/c 3T3 cells [10] (Mus musculus, BALB/c3T3, Balb/c 3T3, 72 h exposure, mean (n = 3) ± SEM, read-out: Inhibitory concentration IC50, LDH), above 227 µM. The “Lowest concentration with significant (p ≤ 0.05) decrease of total protein content (TPC)” value in the data set with Balb/c 3T3 cells [3] is reported as 57 µM. Further, the “Cytotoxicity in 10T1/2 cell line” value with 10T1/2 cell line was “poorly cytotoxic”. Also, in the data set on Balb/c 3T3 cells [5], the “Lowest concentration with significant (p ≤ 0.05) inhibition of mitochondrial activity (MTT)” value is 13.6 µM. The “Lowest concentration with significant (p ≤ 0.05) inhibition of lysosomal activity (NRU)” value in the data set with Balb/c 3T3 cells [6] is given as 7.0 µM. Further, in data set [9], the viability at 72 h is above 50%.
On to `O=[N+]([O-])[O-].OCc1ccncc1.OCc1ccncc1.[Ag+]` [Silver(I) + 4-hydroxymethylpyridine, [(4-hydroxymethylpyridine)2Ag]NO3], for which the “Lowest concentration with significant (p ≤ 0.05) inhibition of lysosomal activity (NRU)” value is 3.8 µM in the data set with HepG2 cells [2] and 0.98 µM in the data set on Balb/c 3T3 cells [6]. Besides, the “Lowest concentration with significant (p ≤ 0.05) decrease of total protein content (TPC)” value in the data set with Balb/c 3T3 cells [3] was determined as 1.9 µM; in the data set on HepG2 cells [7] it was 7.6 µM. In addition, the “Lowest concentration with significant (p ≤ 0.05) disintegration of the cellular membrane (LDH)” value came to 3.8 µM with HepG2 cells [4] and 0.98 µM in the data set on Balb/c 3T3 cells [10]. Moreover, the “Lowest concentration with significant (p ≤ 0.05) inhibition of mitochondrial activity (MTT)” value with Balb/c 3T3 cells [5] and in the data set on HepG2 cells [8] was 3.8 µM in each case.
`Cc1ncc([N+](=O)[O-])n1CCO.Cc1ncc([N+](=O)[O-])n1CCO.O=[N+]([O-])[O-].[Ag+]` [Silver(I) + metronidazole, [(Metronidazole)2AgNO3]]: the “Lowest concentration with significant (p ≤ 0.05) inhibition of lysosomal activity (NRU)” value in the data set on HepG2 cells [2] stood at 6.0 µM; with Balb/c 3T3 cells [6], 3.0 µM. Further, the “Lowest concentration with significant (p ≤ 0.05) decrease of total protein content (TPC)” value with Balb/c 3T3 cells [3] and in the data set on HepG2 cells [7] was 3.0 µM in each case. Also, the “Lowest concentration with significant (p ≤ 0.05) disintegration of the cellular membrane (LDH)” value was 6.0 µM with HepG2 cells [4] and 0.74 µM in the data set on Balb/c 3T3 cells [10]. Further, the “Lowest concentration with significant (p ≤ 0.05) inhibition of mitochondrial activity (MTT)” value with Balb/c 3T3 cells [5] came out at 0.74 µM; with HepG2 cells [8], 6.0 µM.
